Reference: PubChem BioAssay (NCI)
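Assay format: 96-well plates, 48-hour exposure. At the GI50, growth is halved. At the TGI there is no net growth.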

Tests used:
Experiment in all cases: NCI anticancer screen, dose series, 48 h; in the data active = GI50 below about 0.43 µM; inactive = the rest
786-0 renal = tested on: 786-0 renal
A498 renal = tested on: A498 renal
A549 NSCLC = tested on: A549 NSCLC
ACHN renal = tested on: ACHN renal
BT-549 breast = tested on: BT-549 breast
CAKI-1 renal = tested on: CAKI-1 renal
CCRF-CEM leukemia = tested on: CCRF-CEM leukemia
COLO 205 colon = tested on: COLO 205 colon
DU-145 prostate = tested on: DU-145 prostate
EKVX NSCLC = tested on: EKVX NSCLC
HCC-2998 colon = tested on: HCC-2998 colon
HCT-116 colon = tested on: HCT-116 colon
HCT-15 colon = tested on: HCT-15 colon
HL-60(TB) leukemia = tested on: HL-60(TB) leukemia
HOP-62 NSCLC = tested on: HOP-62 NSCLC
HS 578T breast = tested on: HS 578T breast
HT29 colon = tested on: HT29 colon
IGROV1 ovarian = tested on: IGROV1 ovarian
K-562 leukemia = tested on: K-562 leukemia
KM12 colon = tested on: KM12 colon
LOX IMVI melanoma = tested on: LOX IMVI melanoma
M14 melanoma = tested on: M14 melanoma
MALME-3M melanoma = tested on: MALME-3M melanoma
MCF7 breast = tested on: MCF7 breast
MDA-MB-231 breast = tested on: MDA-MB-231 breast
MDA-MB-435 = tested on: MDA-MB-435
MOLT-4 leukemia = tested on: MOLT-4 leukemia
NCI-H226 lung = tested on: NCI-H226 lung
NCI-H23 lung = tested on: NCI-H23 lung
NCI-H460 lung = tested on: NCI-H460 lung
NCI-H522 lung = tested on: NCI-H522 lung
NCI/ADR-RES ovarian = tested on: NCI/ADR-RES ovarian
OVCAR-3 ovarian = tested on: OVCAR-3 ovarian
OVCAR-4 ovarian = tested on: OVCAR-4 ovarian
OVCAR-5 ovarian = tested on: OVCAR-5 ovarian
OVCAR-8 ovarian = tested on: OVCAR-8 ovarian
PC-3 prostate = tested on: PC-3 prostate
RPMI-8226 leukemia = tested on: RPMI-8226 leukemia
RXF 393 renal = tested on: RXF 393 renal
SF-268 CNS = tested on: SF-268 CNS
SF-295 CNS = tested on: SF-295 CNS
SF-539 CNS = tested on: SF-539 CNS
SK-MEL-2 melanoma = tested on: SK-MEL-2 melanoma
SK-MEL-28 melanoma = tested on: SK-MEL-28 melanoma
SK-MEL-5 melanoma = tested on: SK-MEL-5 melanoma
SK-OV-3 ovarian = tested on: SK-OV-3 ovarian
SN12C renal = tested on: SN12C renal
SNB-19 CNS = tested on: SNB-19 CNS
SNB-75 CNS = tested on: SNB-75 CNS
SR leukemia = tested on: SR leukemia
SW-620 colon = tested on: SW-620 colon
T-47D breast = tested on: T-47D breast
TK-10 renal = tested on: TK-10 renal
U251 CNS = tested on: U251 CNS
UACC-257 melanoma = tested on: UACC-257 melanoma
UACC-62 melanoma = tested on: UACC-62 melanoma
UO-31 renal = tested on: UO-31 renal
HOP-92 NSCLC = tested on: HOP-92 NSCLC

Nc1nonc1-c1nc2cnccc2n1C1CCCCC1
inactive: GI50 (786-0 renal) 11.1 µM | GI50 (A498 renal) 5.09 µM | GI50 (A549 NSCLC) 13 µM | GI50 (ACHN renal) 12 µM | GI50 (BT-549 breast) 6.29 µM | GI50 (CAKI-1 renal) 11.6 µM | GI50 (CCRF-CEM leukemia) 7.84 µM | GI50 (COLO 205 colon) 6.9 µM | GI50 (DU-145 prostate) 20.5 µM | GI50 (EKVX NSCLC) > 20.3 µM | GI50 (HCC-2998 colon) > 25 µM | GI50 (HCT-116 colon) 7.45 µM | GI50 (HCT-15 colon) 13.4 µM | GI50 (HL-60(TB) leukemia) 7.25 µM | GI50 (HOP-62 NSCLC) > 25 µM | GI50 (HS 578T breast) 13.9 µM | GI50 (HT29 colon) 9.87 µM | GI50 (IGROV1 ovarian) > 23.1 µM | GI50 (K-562 leukemia) 11 µM | GI50 (KM12 colon) 9.16 µM | GI50 (LOX IMVI melanoma) 16.3 µM | GI50 (M14 melanoma) 24 µM | GI50 (MALME-3M melanoma) > 25 µM | GI50 (MCF7 breast) 9.44 µM | GI50 (MDA-MB-231 breast) > 25 µM | GI50 (MDA-MB-435) 22.5 µM | GI50 (MOLT-4 leukemia) 12 µM | GI50 (NCI-H226 lung) 12.9 µM | GI50 (NCI-H23 lung) > 18.5 µM | GI50 (NCI-H460 lung) 10.3 µM | GI50 (NCI-H522 lung) 6.01 µM | GI50 (NCI/ADR-RES ovarian) > 22.1 µM | GI50 (OVCAR-3 ovarian) 10.7 µM | GI50 (OVCAR-4 ovarian) > 16.6 µM | GI50 (OVCAR-5 ovarian) > 25 µM | GI50 (OVCAR-8 ovarian) 12.8 µM | GI50 (PC-3 prostate) > 19.9 µM | GI50 (RPMI-8226 leukemia) 16.1 µM | GI50 (RXF 393 renal) 4.8 µM | GI50 (SF-268 CNS) > 25 µM | GI50 (SF-295 CNS) 9.48 µM | GI50 (SF-539 CNS) 3.7 µM | GI50 (SK-MEL-2 melanoma) 12 µM | GI50 (SK-MEL-28 melanoma) > 25 µM | GI50 (SK-MEL-5 melanoma) 6.04 µM | GI50 (SK-OV-3 ovarian) 18.8 µM | GI50 (SN12C renal) 12.5 µM | GI50 (SNB-19 CNS) > 25 µM | GI50 (SNB-75 CNS) 2.42 µM | GI50 (SR leukemia) 7.35 µM | GI50 (SW-620 colon) 14 µM | GI50 (T-47D breast) 13.3 µM | GI50 (TK-10 renal) 3.44 µM | GI50 (U251 CNS) 16.5 µM | GI50 (UACC-257 melanoma) > 25 µM | GI50 (UACC-62 melanoma) 14.3 µM | GI50 (UO-31 renal) > 24 µM
> 19.2 µM: TGI (SK-MEL-5 melanoma)
23.4 µM: TGI (NCI-H522 lung)
> 25 µM: TGI (786-0 renal) | TGI (A498 renal) | TGI (A549 NSCLC) | TGI (ACHN renal) | TGI (BT-549 breast) | TGI (CAKI-1 renal) | TGI (CCRF-CEM leukemia) | TGI (COLO 205 colon) | TGI (DU-145 prostate) | TGI (EKVX NSCLC) | TGI (HCC-2998 colon) | TGI (HCT-116 colon) | TGI (HCT-15 colon) | TGI (HOP-62 NSCLC) | TGI (HS 578T breast) | TGI (HT29 colon) | TGI (IGROV1 ovarian) | TGI (K-562 leukemia) | TGI (KM12 colon) | TGI (LOX IMVI melanoma) | TGI (M14 melanoma) | TGI (MALME-3M melanoma) | TGI (MCF7 breast) | TGI (MDA-MB-231 breast) | TGI (MDA-MB-435) | TGI (MOLT-4 leukemia) | TGI (NCI-H226 lung) | TGI (NCI-H23 lung) | TGI (NCI-H460 lung) | TGI (NCI/ADR-RES ovarian) | TGI (OVCAR-3 ovarian) | TGI (OVCAR-4 ovarian) | TGI (OVCAR-5 ovarian) | TGI (OVCAR-8 ovarian) | TGI (PC-3 prostate) | TGI (RPMI-8226 leukemia) | TGI (RXF 393 renal) | TGI (SF-268 CNS) | TGI (SF-295 CNS) | TGI (SF-539 CNS) | TGI (SK-MEL-2 melanoma) | TGI (SK-MEL-28 melanoma) | TGI (SK-OV-3 ovarian) | TGI (SN12C renal) | TGI (SNB-19 CNS) | TGI (SNB-75 CNS) | TGI (SR leukemia) | TGI (SW-620 colon) | TGI (T-47D breast) | TGI (TK-10 renal) | TGI (U251 CNS) | TGI (UACC-257 melanoma) | TGI (UACC-62 melanoma) | TGI (UO-31 renal)
19.6 µM: TGI (HL-60(TB) leukemia)

C=C(CN1CCc2ccccc2C1)c1ccc(CCC(=O)Nc2ccccc2N)cc1
51 µM: TGI (SN12C renal)
28.7 µM: TGI (UO-31 renal)
68.7 µM: TGI (A498 renal)
44.1 µM: TGI (MDA-MB-231 breast)
48.7 µM: TGI (DU-145 prostate)
63.5 µM: TGI (OVCAR-3 ovarian)
77.1 µM: TGI (CAKI-1 renal)
71.2 µM: TGI (NCI-H226 lung)
inactive: GI50 (786-0 renal) 18.3 µM | GI50 (A498 renal) 26.1 µM | GI50 (A549 NSCLC) 41.3 µM | GI50 (ACHN renal) 34.1 µM | GI50 (BT-549 breast) 16.4 µM | GI50 (CAKI-1 renal) 20.9 µM | GI50 (CCRF-CEM leukemia) 4.66 µM | GI50 (COLO 205 colon) 23.6 µM | GI50 (DU-145 prostate) 18.7 µM | GI50 (EKVX NSCLC) 37.1 µM | GI50 (HCC-2998 colon) 17.1 µM | GI50 (HCT-116 colon) 16.2 µM | GI50 (HCT-15 colon) 35.4 µM | GI50 (HOP-62 NSCLC) 65.7 µM | GI50 (HOP-92 NSCLC) 87.4 µM | GI50 (HS 578T breast) 44 µM | GI50 (HT29 colon) 31 µM | GI50 (IGROV1 ovarian) 16.3 µM | GI50 (K-562 leukemia) 23 µM | GI50 (KM12 colon) 21.9 µM | GI50 (M14 melanoma) 17.6 µM | GI50 (MALME-3M melanoma) 8.7 µM | GI50 (MCF7 breast) 21.1 µM | GI50 (MDA-MB-231 breast) 18.6 µM | GI50 (MDA-MB-435) 22.5 µM | GI50 (MOLT-4 leukemia) 4.65 µM | GI50 (NCI-H226 lung) 27.1 µM | GI50 (NCI-H23 lung) 28.6 µM | GI50 (NCI-H460 lung) 16.8 µM | GI50 (NCI-H522 lung) 16.2 µM | GI50 (NCI/ADR-RES ovarian) 18.9 µM | GI50 (OVCAR-3 ovarian) 19.3 µM | GI50 (OVCAR-5 ovarian) 54.1 µM | GI50 (OVCAR-8 ovarian) 26.2 µM | GI50 (PC-3 prostate) 25.4 µM | GI50 (RPMI-8226 leukemia) 14.8 µM | GI50 (SF-268 CNS) 14.6 µM | GI50 (SF-295 CNS) 24.2 µM | GI50 (SF-539 CNS) 19.4 µM | GI50 (SK-MEL-2 melanoma) 23.9 µM | GI50 (SK-MEL-28 melanoma) 42.6 µM | GI50 (SK-MEL-5 melanoma) 18 µM | GI50 (SK-OV-3 ovarian) 60.8 µM | GI50 (SN12C renal) 17.3 µM | GI50 (SNB-19 CNS) 64.3 µM | GI50 (SNB-75 CNS) 25.3 µM | GI50 (SR leukemia) 18.7 µM | GI50 (SW-620 colon) 28.3 µM | GI50 (T-47D breast) 34.3 µM | GI50 (TK-10 renal) 43.1 µM | GI50 (U251 CNS) 21.3 µM | GI50 (UACC-257 melanoma) 22.6 µM | GI50 (UACC-62 melanoma) 26.9 µM | GI50 (UO-31 renal) 12 µM
74.5 µM: TGI (SR leukemia)
34.3 µM: TGI (M14 melanoma)
54.7 µM: TGI (MCF7 breast)
55.1 µM: TGI (BT-549 breast)
71.8 µM: TGI (KM12 colon)
86.7 µM: TGI (SF-295 CNS)
49.9 µM: TGI (MDA-MB-435)
59.5 µM: TGI (OVCAR-8 ovarian)
97.9 µM: TGI (HCT-15 colon)
48 µM: TGI (COLO 205 colon)
26 µM: TGI (MOLT-4 leukemia)
38.6 µM: TGI (NCI-H460 lung)
38.2 µM: TGI (NCI-H522 lung)
83.3 µM: TGI (NCI/ADR-RES ovarian)
85.2 µM: TGI (NCI-H23 lung)
37 µM: TGI (SF-539 CNS)
45.3 µM: TGI (SF-268 CNS)
33.4 µM: TGI (HCC-2998 colon)
33.2 µM: TGI (SK-MEL-5 melanoma)
65.8 µM: TGI (SW-620 colon)
56.9 µM: TGI (K-562 leukemia)
36.8 µM: TGI (MALME-3M melanoma)
64.4 µM: TGI (SNB-75 CNS)
50.3 µM: TGI (U251 CNS)
46.4 µM: TGI (UACC-257 melanoma)
> 100 µM: TGI (786-0 renal) | TGI (A549 NSCLC) | TGI (ACHN renal) | TGI (CCRF-CEM leukemia) | TGI (EKVX NSCLC) | TGI (HOP-62 NSCLC) | TGI (HOP-92 NSCLC) | TGI (HS 578T breast) | TGI (HT29 colon) | TGI (OVCAR-5 ovarian) | TGI (PC-3 prostate) | TGI (RPMI-8226 leukemia) | TGI (SK-MEL-28 melanoma) | TGI (SK-OV-3 ovarian) | TGI (SNB-19 CNS) | TGI (T-47D breast) | TGI (TK-10 renal) | TGI (UACC-62 melanoma)
41.9 µM: TGI (IGROV1 ovarian)
54 µM: TGI (SK-MEL-2 melanoma)
32.4 µM: TGI (HCT-116 colon)
